In patent publication US20160251342A1, “ALDEHYDE DERIVATIVE OF SUBSTITUTED OXAZOLIDINONES” (WANBURY LTD., priority 2012, published 2016):
Where “and” joins values, the source holds several entries; their conditions need not be identical. Identical values can stand only once.

Legend:
[1] = Intravenous and oral pharmacokinetics in Wistar rats; format: in vivo; settings: after i.v. administration, first measurement point
Procedure: On the day before administration of the substance, a catheter for obtaining blood is implanted in the jugular vein of the experimental animals (male Wistar rats, body weight 200-250 g) under Isofluran® anesthesia.
Blood samples (8-12 time points) are taken through the catheter sequentially over the course of 24 h after administration of the substance. The administration volume is 10 ml/kg for oral and 1 ml/kg for IV in male Wistar rats. Intravenous administration is via a formulation of 2% N—N Dimethyl acetamide/ethanol 10%/PEG400(30%)/water for IV injection (58%) and via Tween80/PEG400/sterile water in the case of oral administration. […]
Plasma is obtained by centrifuging the samples in heparinized tubes. […] After centrifugation, compound formula (B) and, where appropriate, known cleavage products of the compound formula (B) in the supernatant are determined quantitatively using a suitable LC/MS-MS method.
The measured plasma concentrations are used to calculate pharmacokinetic parameters of the test substance and of the active ingredient compound (A) liberated there from, such as AUC, Cmax, T½ (half-life) and CL (clearance). […]
The plasma concentration/time plots determined are used to calculate the pharmacokinetic parameters such as AUC, Cmax, MRT (mean residence time), t½ (half life) and CL (clearance) employing the validated pharmacokinetic calculation programs. […]

[2] = In vitro stability in rat plasma (LC-MS); format: in vitro ADME
Procedure: (§1) The final concentration of the test compound in the assay is 5 micromolar. […] C. The 100 microlitres of aliquot at time point was removed and diluted with ice cold acetonitrile containing IS (200 µL) to stop the reactions. Samples are centrifuged at 10,000 RPM for 5 minutes to precipitate proteins. Supernatants are transferred to micro centrifuge tubes and stored at −20° C. for analysis of LC/MS/MS. The percent parent remaining of the test substance is calculated as ratio of peak area at each time point to peak area ratio at zero min, multiplied by 100.
(§2) API 4000, ESI Agilent 1100 column: Gemini Nx 100 mm×4.6 mm 5.μ; column temperature: 30° C.; eluent A: 0.1% formic acid in water, eluent B: acetonitrile; gradient: 0-2.5 min 95% A, 5% B; 2.5-2.6 min 5% A, 95% B; 2.6-4.2 min 95% A, 5% B; flow rate: 0.8 ml/min; ESI. Q1:464.098, Q3:144.255

[3] = Stability in buffer at various pH (LC-MS/MS); format: physicochemical; settings: for Analyte Peak Area (counts): 24 hr room temperature, replicates, Standard average 39849828
Procedure: (§3) On completion of incubation period, the solution is centrifuged and supernatant is taken. To the supernatant, ice cold acetonitrile containing IS is added, vortexed and injected into LCMS/MS.
as §2
Prepared 0.1 mol of citric acid and 0.2 mol of di sodium hydrogen phosphate in water. Buffer pH 2.2, 4 and 7.8 are prepared using citric acid and disodium hydrogen phosphate by adjusting the pH with 0.1N HCl or 1N NaOHpH 7.4:8.89 g disodium hydrogen phosphate (Solution A) add to 1 litre of water, 1.5601 g sodium di-hydrogen phosphate (solution B) are made up to 1 liter with water; […] are mixed.

[4] = In vitro stability in human plasma (LC-MS); format: in vitro ADME
Procedure: as §1, §2

[5] = Stability in simulating intestinal fluid (SIF); format: physicochemical; settings: SIF pH 7.4, up to 120 min
Procedure: as §3, §2
SIF/SGF: 2.38 g of SIF original powder (biorelavant media) is dissolved in 1 L of milliQ water. The pH of the solution is adjusted for SIF (7.4) and SGF (2.2) with 0.1N HCl. The ratios of the peak areas (F) at the respective time points in relation to the peak areas at the starting time are calculated. […] The peak area (F) is directly correlated to the amount of test compound which is quantified by the LC MS method.
In simulating intestinal and gastric fluid, the area of the formula B compared with zero minute area to 120 min.

Structure (SMILES): O=CN(C[C@H]1CN(c2ccc(N3CCOCC3=O)cc2)C(=O)O1)C(=O)c1ccc(Cl)s1 [compound formula (B), 5-chloro-N-formyl-N-({(5S)-2-oxo-3-[4-(3-oxomorpholin-4-yl)phenyl]-1,3-oxazolidin-5-yl}methyl)thiophene-2-carboxamide]
- Detectability of unchanged test substance in plasma [1]: no longer detectable
- Amount of test product detected (conversion to rivaroxaban from zero min) [2]: min. Neglible
- Analyte Peak Area (counts) ([3]; pH 2.1 buffer): 20975674 counts and 35654402 counts
- Analyte Peak Area (counts) ([3]; pH 4 buffer): 42841292 counts and 26917087 counts
- Analyte Peak Area (counts) ([3]; pH 7.8 buffer): 35312 counts and 42503 counts
- Stability in varying pH buffer conditions ([3]; varying pH buffers, rivaroxaban formation observed): degraded
- Amount of test product detected (conversion to rivaroxaban from zero min) [4]: Neglible
- Stability at simulating intestinal conditions [5]: stable
